In ChEMBL document CHEMBL4806957, “Cdk8/cdk19 selective inhibitors and their use in anti-metastatic and chemopreventive methods for cancer” (2019):
pIC50, pKd: −log10 of the molar value. Active and inactive are the calls of the source. No cut-off for these calls is given here.

Assays:
[1] = Solubility of compound in water at < 50 mM after 30 mins; type: physicochemical; settings: buffer, 0.5 h
[2] = Solubility of compound in water at 10 mM after 30 mins; type: physicochemical; settings: buffer, 0.5 h, 10000 µM
[3] = Solubility of compound in water at 50 mM after 30 mins; type: physicochemical; settings: buffer, 0.5 h, 50000 µM
MDA-MB-231 [4] = assay: Antitumor activity against human MDA-MB-231 cells xenografted in SCID mouse assessed as reduction in tumor growth at 1 mg/kg, ip administered as single dose; type: functional, organism-based
[5] = Toxicity in mouse xenografted with human MDA-MB-231 cells assessed as reduction in body weight at 1 mg/kg administered as single dose; type: organism-based; set-up: scale not given: the % may be the effect or the level left; settings: in vivo
MDA-MB-468 [6] = assay: Antitumor activity against human MDA-MB-468 cells xenografted in nude mouse assessed as reduction in tumor growth at 4 mg/kg, ip administered daily for 30 days by caliper method; type: functional, organism-based; settings: time 30.0 day
MDA-MB-468 [7] = assay: Antitumor activity against human MDA-MB-468 cells xenografted in nude mouse assessed as invasive tumor growth at 4 mg/kg, ip administered daily for 30 days by H and E staining based histological analysis; type: functional, organism-based; settings: time 30.0 day
[8] = target: T1, Cyclin-dependent kinase 8 (Homo sapiens, UniProt P49336); assay: Inhibition of CDK8 (unknown origin) by Pro-Qinase assay
T1 sequence (P49336 whole entry): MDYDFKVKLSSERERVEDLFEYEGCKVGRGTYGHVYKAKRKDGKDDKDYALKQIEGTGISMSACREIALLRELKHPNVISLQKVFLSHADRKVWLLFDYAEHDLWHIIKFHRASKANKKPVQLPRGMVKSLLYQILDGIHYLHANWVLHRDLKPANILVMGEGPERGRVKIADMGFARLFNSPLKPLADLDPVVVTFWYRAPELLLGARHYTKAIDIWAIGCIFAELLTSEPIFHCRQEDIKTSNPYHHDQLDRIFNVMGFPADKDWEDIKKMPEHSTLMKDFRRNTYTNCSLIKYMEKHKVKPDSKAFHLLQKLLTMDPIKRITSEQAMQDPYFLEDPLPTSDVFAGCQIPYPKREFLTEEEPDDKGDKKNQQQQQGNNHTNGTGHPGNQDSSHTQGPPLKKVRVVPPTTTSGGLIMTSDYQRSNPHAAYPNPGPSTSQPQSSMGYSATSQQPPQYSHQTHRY

[9] = target: T1, Cyclin-dependent kinase 8; assay: Inhibition of CDK8 in human HT1080 cells assessed as inhibition of IPTG-inducible p21 induced CMV-GFP expression by Hoechst 33342 staining-based fluorescence assay; type: cell-based; settings: HT-1080
[10] = target: T1, Cyclin-dependent kinase 8; assay: Inhibition of CDK8 (unknown origin)
[11] = target: Cyclin-dependent kinase 9 (Homo sapiens, UniProt P50750); assay: Inhibition of CDK9 (unknown origin)
Sequence of Cyclin-dependent kinase 9 (P50750 whole entry, the tested form may be a part): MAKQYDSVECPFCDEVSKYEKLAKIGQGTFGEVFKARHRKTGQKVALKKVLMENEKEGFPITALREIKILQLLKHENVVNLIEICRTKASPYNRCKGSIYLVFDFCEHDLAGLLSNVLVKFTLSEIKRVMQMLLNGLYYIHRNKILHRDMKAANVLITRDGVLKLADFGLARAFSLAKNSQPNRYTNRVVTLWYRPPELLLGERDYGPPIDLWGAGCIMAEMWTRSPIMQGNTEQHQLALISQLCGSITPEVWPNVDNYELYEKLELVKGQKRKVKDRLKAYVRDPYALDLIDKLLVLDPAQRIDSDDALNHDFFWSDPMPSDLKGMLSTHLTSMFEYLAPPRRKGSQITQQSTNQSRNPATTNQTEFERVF

[12] = target: Cyclin-dependent kinase 19 (Homo sapiens) (UniProt Q9BWU1); assay: Inhibition of human […] (M1 to N360 residues) expressed in bacterial expression system at 2000 nM by KINOMEscan assay relative to control
Sequence of Cyclin-dependent kinase 19 (Homo sapiens) (Q9BWU1 whole entry, the tested form may be a part): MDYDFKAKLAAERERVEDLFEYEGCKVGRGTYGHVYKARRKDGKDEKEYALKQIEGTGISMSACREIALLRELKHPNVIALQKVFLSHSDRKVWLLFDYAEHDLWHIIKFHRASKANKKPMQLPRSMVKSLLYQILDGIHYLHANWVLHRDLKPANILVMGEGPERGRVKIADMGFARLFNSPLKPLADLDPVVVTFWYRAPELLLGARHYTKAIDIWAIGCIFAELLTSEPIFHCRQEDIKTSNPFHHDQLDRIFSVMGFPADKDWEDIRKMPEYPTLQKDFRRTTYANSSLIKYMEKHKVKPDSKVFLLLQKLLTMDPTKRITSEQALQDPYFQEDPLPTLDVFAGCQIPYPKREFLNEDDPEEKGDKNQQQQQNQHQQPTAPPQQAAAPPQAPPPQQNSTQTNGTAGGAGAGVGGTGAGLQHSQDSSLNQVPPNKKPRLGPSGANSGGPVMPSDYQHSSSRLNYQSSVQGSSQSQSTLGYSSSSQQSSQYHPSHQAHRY

[13] = target: T1, Cyclin-dependent kinase 8; assay: Inhibition of human CDK8 (M1 to T360 residues) expressed in bacterial expression system at 2000 nM by KINOMEscan assay relative to control
[14] = AUC in rat at 40 mg/kg, ip; type: ADME, organism-based; set-up: dose 40 mg/kg; settings: in vivo
[15] = Plasma concentration in mouse at 100 mg/kg administered via gavage; type: ADME, organism-based; settings: in vivo, po
[16] = Toxicity in BALB/c mouse assessed as body weight gain at 40 mg/kg, ip administered with 5 daily doses and 2 days off and another 5 daily dosing schedule for 12 days; type: organism-based; settings: in vivo, 288 h, time 12 day
[17] = Toxicity in BALB/c mouse assessed as decrease in brain weight at 40 mg/kg, ip administered with 5 daily doses and 2 days off and another 5 daily dosing schedule for 12 days; type: organism-based; settings: in vivo, 288 h, time 12 day
[18] = Toxicity in BALB/c mouse assessed as decrease in kidney weight at 40 mg/kg, ip administered with 5 daily doses and 2 days off and another 5 daily dosing schedule for 12 days; type: organism-based; settings: in vivo, 288 h, time 12 day
[19] = Toxicity in BALB/c mouse assessed as decrease in thymus weight at 40 mg/kg, ip administered with 5 daily doses and 2 days off and another 5 daily dosing schedule for 12 days; type: organism-based; settings: in vivo, 288 h, time 12 day
[20] = Toxicity in BALB/c mouse assessed as decrease in spleen weight at 40 mg/kg, ip administered with 5 daily doses and 2 days off and another 5 daily dosing schedule for 12 days; type: organism-based; set-up: scale not given: the % may be the effect or the level left; settings: in vivo, 288 h, time 12 day
[21] = Toxicity in BALB/c mouse assessed as decrease in lung weight at 40 mg/kg, ip administered with 5 daily doses and 2 days off and another 5 daily dosing schedule for 12 days; type: organism-based; settings: in vivo, 288 h, time 12 day
[22] = Toxicity in BALB/c mouse assessed as decrease in liver weight at 40 mg/kg, ip administered with 5 daily doses and 2 days off and another 5 daily dosing schedule for 12 days; type: organism-based; settings: in vivo, 288 h, time 12 day
[23] = Toxicity in BALB/c mouse assessed as decrease in lymphocytes count at 40 mg/kg, ip administered with 5 daily doses and 2 days off and another 5 daily dosing schedule for 12 days; type: organism-based; set-up: scale not given: the % may be the effect or the level left; settings: in vivo, 288 h, time 12 day
A549 = assay: Antitumor activity against human A549 cells xenografted in CB-17 SCID mouse assessed as reduction in tumor growth pretreated with compound at 40 mg/kg, ip administered 5 daily dose followed by tumor injection and monitored twice a week starting from 7 days after post tumor injection to 24 days by caliper method; type: functional, organism-based; settings: time 24.0 day
MDA-MB-468 [24] = assay: Antitumor activity against human MDA-MB-468 cells xenografted in nude mouse assessed as slower appearance of palpable tumor pretreated with compound at 25 mg/kg, ip administered 5 daily dose followed by tumor injection and monitored every day; type: functional, organism-based
MDA-MB-468 [25] = assay: Antitumor activity against human MDA-MB-468 cells xenografted in mouse assessed as reduction in tumor growth pretreated with compound at 40 mg/kg, ip administered for 3 days followed by tumor injection by caliper method; type: functional, organism-based; settings: time 3.0 day
MDA-MB-468 [26] = assay: Antitumor activity against human MDA-MB-468 cells xenografted in mouse assessed as reduction in tumor growth at 40 mg/kg, ip by caliper method; type: functional, organism-based
4T1 = assay: Growth inhibition of mouse 4T1 cells at 0.078 to 10 uM after 5 days by MTT assay; type: functional, cell-based; settings: dose 0.078-10 µM, time 5.0 day
[27] = target: T2, Catenin beta-1 (Homo sapiens) (UniProt P35222); assay: Inhibition of beta-catenin activity in human HCT116 cells assessed as reduction in TOPFlash promoter mediated luciferase expression; type: cell-based; settings: HCT-116, dose […]
T2 sequence (whole entry): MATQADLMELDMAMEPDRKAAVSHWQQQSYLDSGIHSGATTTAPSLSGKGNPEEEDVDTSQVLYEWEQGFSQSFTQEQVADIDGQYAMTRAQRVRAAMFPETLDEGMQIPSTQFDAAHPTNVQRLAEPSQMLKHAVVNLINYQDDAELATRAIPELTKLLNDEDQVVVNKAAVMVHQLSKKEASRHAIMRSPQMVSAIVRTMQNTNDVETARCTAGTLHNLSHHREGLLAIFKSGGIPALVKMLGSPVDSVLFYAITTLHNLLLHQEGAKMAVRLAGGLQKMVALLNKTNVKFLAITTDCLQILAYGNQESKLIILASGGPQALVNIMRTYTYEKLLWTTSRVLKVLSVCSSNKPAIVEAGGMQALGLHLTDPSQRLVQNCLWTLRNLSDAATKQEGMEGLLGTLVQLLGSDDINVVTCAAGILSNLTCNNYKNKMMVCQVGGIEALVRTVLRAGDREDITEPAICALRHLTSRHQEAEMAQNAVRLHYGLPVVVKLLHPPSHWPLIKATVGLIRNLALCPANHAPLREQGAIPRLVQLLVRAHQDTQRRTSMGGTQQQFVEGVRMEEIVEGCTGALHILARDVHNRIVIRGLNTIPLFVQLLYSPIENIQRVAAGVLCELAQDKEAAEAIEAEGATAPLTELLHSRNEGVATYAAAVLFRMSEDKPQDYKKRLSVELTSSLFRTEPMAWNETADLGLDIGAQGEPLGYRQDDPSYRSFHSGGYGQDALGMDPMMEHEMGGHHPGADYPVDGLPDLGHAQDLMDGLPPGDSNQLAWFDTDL

MDA-MB-468 [28] = assay: Growth inhibition of human MDA-MB-468 cells after 5 days by MTT assay; type: functional, cell-based; settings: dose 0.078-10 µM, time 5.0 day
MDA-MB-157 = assay: Growth inhibition of human MDA-MB-157 cells after 5 days by MTT assay; type: functional, cell-based; settings: dose 0.078-10 µM, time 5.0 day
MDA-MB-231 [29] = assay: Antitumor activity against human MDA-MB-231 cells xenografted in SCID mouse assessed as reduction in tumor growth at 40 mg/kg, ip administered as 5 daily doses; type: functional, organism-based
[30] = Toxicity in mouse xenografted with human MDA-MB-231 cells assessed as reduction in body weight at 40 mg/kg administered as 5 daily doses; type: organism-based; settings: in vivo
MDA-MB-231 [31] = assay: Additive antitumor activity against human MDA-MB-231 cells xenografted in SCID mouse assessed as reduction in tumor growth at 40 mg/kg, ip administered as 5 daily doses in presence of doxorubicin; type: functional, organism-based
MDA-MB-468 [32] = assay: Antitumor activity against human MDA-MB-468 cells xenografted in nude mouse assessed as reduction in tumor growth at 40 mg/kg, ip administered daily for 30 days by caliper method; type: functional, organism-based; settings: time 30.0 day
MDA-MB-468 [33] = assay: Antitumor activity against human MDA-MB-468 cells xenografted in nude mouse assessed as reduction in tumor growth at 40 mg/kg, ip administered daily for 30 days in presence of doxorubicin by caliper method; type: functional, organism-based; settings: time 30.0 day
MDA-MB-468 [34] = assay: Antitumor activity against human MDA-MB-468 cells xenografted in nude mouse assessed as non-invasive tumor growth at 40 mg/kg, ip administered daily for 30 days by H and E staining based histological analysis; type: functional, organism-based; settings: time 30.0 day
MDA-MB-468 [35] = assay: Antitumor activity against human MDA-MB-468 cells xenografted in nude mouse assessed as non-invasive tumor growth at 40 mg/kg, ip administered daily for 30 days in presence of doxorubicin by H and E staining based histological analysis; type: functional, organism-based; settings: time 30.0 day

CN1CCN(C(=O)c2cc(CNc3ncnc4ccc(C#N)cc34)ccc2Cl)CC1
solubility [1]: Soluble

N#Cc1ccc2ncnc(NCCc3ccc(C(=O)N4CCC(N)C4)cc3)c2c1 (stereo not given)
solubility [2]: Soluble

CN(C)CCNC(=O)c1ccc(CCNc2ncnc3ccc(C#N)cc23)cc1
solubility [2]: Soluble

COCCNC(=O)c1ccc(CCNc2ncnc3ccc(C#N)cc23)cc1
solubility [2]: Soluble

N#Cc1ccc2ncnc(NCc3ccc(Cl)c(C(=O)N4CCOCC4)c3)c2c1
solubility [3]: Soluble

CN(C)C(=O)c1ccc(CCNc2ncnc3ccc(C#N)cc23)cc1
solubility [2]: Soluble

N#Cc1ccc2ncnc(NCCc3ccc(C(=O)N4CCOCC4)cc3)c2c1
solubility [2]: Soluble

CN1CCN(C(=O)c2ccc(CCNc3ncnc4ccc(C#N)cc34)cc2)CC1
solubility [2]: Soluble

N#Cc1ccc2ncnc(NCCc3ccc4cc(C(=O)N5CCOCC5)ccc4c3)c2c1
solubility [1]: Soluble

COc1cccc2c1C(=O)c1c(O)c3c(c(O)c1C2=O)C[C@@](O)(C(=O)CO)C[C@@H]3O[C@H]1C[C@H](N)[C@H](O)[C@H](C)O1 [DOXORUBICIN]
Activity (MDA-MB-231 [4]): Active | Activity [5]: 15% | Activity (MDA-MB-468 [6]): Active | Activity (MDA-MB-468 [7]): Active

CN1CCN(C(=O)c2ccc3cc(CCNc4ncnc5ccc(C#N)cc45)ccc3c2)CC1 [SENEXIN B]
solubility [3]: Soluble | pIC50 [8]: 7.62 | inhibition [9]: Active | pKd [10]: 6.85 | Kd [11]: Not Active | inhibition [12]: 98.6% | inhibition [13]: 97.8% | AUC [14]: 14.1 µg·h/mL | concentration [15]: 50 µM | Activity [16]: Non-Toxic | Activity [17]: Non-Toxic | Activity [18]: Non-Toxic | Activity [19]: Non-Toxic | Activity [20]: 20% | Activity [21]: Non-Toxic | Activity [22]: Non-Toxic | Activity [23]: 25% | Activity (A549): Active | Activity (MDA-MB-468 [24]): Active | Activity (MDA-MB-468 [25]): Active | Activity (MDA-MB-468 [26]): Active | growth inhibition (GI) (4T1): inactive | inhibition [27]: Dose-Dependent Effect | growth inhibition (GI) (MDA-MB-468 [28]): Dose-Dependent Effect | growth inhibition (GI) (MDA-MB-157): Dose-Dependent Effect | Activity (MDA-MB-231 [29]): Active | Activity [30]: Non-Toxic | Activity (MDA-MB-231 [31]): Active | Activity (MDA-MB-468 [32]): Active | Activity (MDA-MB-468 [33]): Active | Activity (MDA-MB-468 [34]): Active | Activity (MDA-MB-468 [35]): Active
